Series [1] deals with hERG potassium ion channel (Homo sapiens, UniProt Q12809). Description: in vitro. To be noted: human. As for the experimental part: CHO-hERG cells were cultured in a 175 cm^2 flask, and when the cell density was increased to 60-80%, the medium was removed and washed with 7 mL of PBS (Phosphate Buffered Saline phosphate buffer), and then digested with 3 mL of Detachin.
The single-cell high impedance sealing and the whole-cell mode formation process were all automatically completed by the Qpatch instrument. After obtaining the whole-cell recording mode, the cells were clamped at −80 mV (millivolt). Before giving a 5-second+40 mV depolarization stimulus, a 50 ms-50 mV pre-voltage was first given, repolarized to −50 mV for 5 seconds, and then returned to −80 mV. This voltage stimulation was applied every 15 seconds. After recording for 2 minutes, extracellular fluid was given for 5 minutes, and then the administration process was started. The compound concentration started from the lowest test concentration, and each test concentration was given for 2.5 minutes. […] At least 3 cells were tested at each concentration (n≥3).
The 20 mM compound mother solution was diluted with extracellular fluid, and 5 μL of 20 mM compound mother solution was added to 2495 μL of extracellular solution, diluted 500-fold to 40 μM, and then sequentially performed 3-fold continuous dilution in an extracellular fluid containing 0.2% DMSO to obtain the final concentration to be tested.
The experimental data were analyzed by XLFit software.

A further series addresses T1, PARP1 (Homo sapiens, UniProt P09874).
T1 construct: purchased BPS 80580
The series is described as follows: PARP1 Colorimetric Assay (PARP-1 kinase inhibitory activity). It is filed as biochemical. To be noted: PARP1 colorimetric assay kit, 1 hour at room temperature; read-out: PARP1 (in vitro enzymatic inhibitory activity, IC50). As for the experimental part: PARP1 kinase activity was tested by the following method:
PARP1 Colorimetric Assay Kit (BPS, Cat #80580)
1. PARP1 Colorimetric Assay
2) 50 μL of diluted coating solution was added to each well for overnight at 4° C.
4) 200 μL of blocking buffer was added to each well and incubated at room temperature for 90 minutes.
1) A reaction solution was prepared in a ratio of […] 2.5 μL 10×PARP buffer+2.5 μL 10×PARP Assay mixture+5 μL Activated DNA+15 μL deionized water per well, and 25 μL of the reaction solution was added to each well (see Table 1).
4) 100 μL of colorimetric HRP substrate was added to each well and reacted at room temperature for 20 minutes.
5) 100 μL of 2 M H2SO4 was added to each well and OD 450 nm was read on a microplate reader.

The next series is described as follows: in vivo. As for the experimental part:
SD rats were used as test animals, and the drug concentrations in plasma at different times after intravenous and intragastric administration of the compounds of examples were determined by LC/MS/MS method(s) to study the pharmacokinetics of the compound in the present disclosure in rats
Healthy adult male SD (Sprague-Dawley) rats, 3 animals per test compound, 6-9 weeks old, weighing 250±50 g, were purchased from Shanghai SLAC Laboratory Animal Co., Ltd.
The appropriate amount of sample was weighed out, 0.5% Methocel/2% tween 80 was added to the final volume, and 2 mg/mL was prepared for intragastric administration.
Each 3 male SD rats of each test compound were taken by intragastric administration at a dosage of 10 mg/kg after fasting overnight.
Blood samples of each animal were collected at different time points 0.083-24 h from jugular vein puncture after administration, K2-EDTA anticoagulation, centrifugation, and blood plasma were collected, frozen at −70° C. until LC/MS/MS analysis.

Setting [2] is: male, Sprague-Dawley, rat, in vivo, po, 10 mg/kg.
Setting [3] is: SD rats, table head: Dose PO (10 mg/kg).

Where only a bound is given, the exact number is not on record here.

The values that follow come from patent publication US11072596B2, “Poly(ADP-ribose) polymerase inhibitor, preparation method and use” (SELECTION BIOSCIENCE LLC, priority 2017, dated 2021).

T1 sequence (P09874 whole entry): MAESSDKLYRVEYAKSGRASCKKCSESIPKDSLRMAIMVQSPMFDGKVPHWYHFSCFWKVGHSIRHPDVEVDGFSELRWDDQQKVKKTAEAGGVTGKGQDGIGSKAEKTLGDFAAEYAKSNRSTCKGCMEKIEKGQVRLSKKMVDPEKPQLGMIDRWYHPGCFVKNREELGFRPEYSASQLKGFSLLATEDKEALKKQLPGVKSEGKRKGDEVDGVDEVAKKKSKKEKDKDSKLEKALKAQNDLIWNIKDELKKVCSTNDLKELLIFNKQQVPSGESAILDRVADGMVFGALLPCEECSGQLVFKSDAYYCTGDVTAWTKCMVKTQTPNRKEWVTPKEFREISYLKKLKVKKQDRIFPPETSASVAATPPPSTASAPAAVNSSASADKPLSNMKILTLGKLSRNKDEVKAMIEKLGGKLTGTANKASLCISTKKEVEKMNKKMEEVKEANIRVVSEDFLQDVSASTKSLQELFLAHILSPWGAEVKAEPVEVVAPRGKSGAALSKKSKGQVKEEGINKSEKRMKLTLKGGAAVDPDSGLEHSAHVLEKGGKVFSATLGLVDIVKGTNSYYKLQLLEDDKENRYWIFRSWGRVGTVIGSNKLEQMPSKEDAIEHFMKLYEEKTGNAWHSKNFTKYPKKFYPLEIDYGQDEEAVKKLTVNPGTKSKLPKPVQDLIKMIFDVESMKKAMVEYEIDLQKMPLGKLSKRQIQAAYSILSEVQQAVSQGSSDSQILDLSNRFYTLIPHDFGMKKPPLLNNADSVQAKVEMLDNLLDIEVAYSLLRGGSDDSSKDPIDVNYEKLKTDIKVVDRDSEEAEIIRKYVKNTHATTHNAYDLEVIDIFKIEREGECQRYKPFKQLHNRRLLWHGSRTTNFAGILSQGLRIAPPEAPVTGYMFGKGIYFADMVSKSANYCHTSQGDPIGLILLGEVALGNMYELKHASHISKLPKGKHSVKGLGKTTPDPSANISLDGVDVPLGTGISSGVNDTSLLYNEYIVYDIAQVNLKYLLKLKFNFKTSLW
hERG potassium ion channel, sequence (Q12809 whole entry): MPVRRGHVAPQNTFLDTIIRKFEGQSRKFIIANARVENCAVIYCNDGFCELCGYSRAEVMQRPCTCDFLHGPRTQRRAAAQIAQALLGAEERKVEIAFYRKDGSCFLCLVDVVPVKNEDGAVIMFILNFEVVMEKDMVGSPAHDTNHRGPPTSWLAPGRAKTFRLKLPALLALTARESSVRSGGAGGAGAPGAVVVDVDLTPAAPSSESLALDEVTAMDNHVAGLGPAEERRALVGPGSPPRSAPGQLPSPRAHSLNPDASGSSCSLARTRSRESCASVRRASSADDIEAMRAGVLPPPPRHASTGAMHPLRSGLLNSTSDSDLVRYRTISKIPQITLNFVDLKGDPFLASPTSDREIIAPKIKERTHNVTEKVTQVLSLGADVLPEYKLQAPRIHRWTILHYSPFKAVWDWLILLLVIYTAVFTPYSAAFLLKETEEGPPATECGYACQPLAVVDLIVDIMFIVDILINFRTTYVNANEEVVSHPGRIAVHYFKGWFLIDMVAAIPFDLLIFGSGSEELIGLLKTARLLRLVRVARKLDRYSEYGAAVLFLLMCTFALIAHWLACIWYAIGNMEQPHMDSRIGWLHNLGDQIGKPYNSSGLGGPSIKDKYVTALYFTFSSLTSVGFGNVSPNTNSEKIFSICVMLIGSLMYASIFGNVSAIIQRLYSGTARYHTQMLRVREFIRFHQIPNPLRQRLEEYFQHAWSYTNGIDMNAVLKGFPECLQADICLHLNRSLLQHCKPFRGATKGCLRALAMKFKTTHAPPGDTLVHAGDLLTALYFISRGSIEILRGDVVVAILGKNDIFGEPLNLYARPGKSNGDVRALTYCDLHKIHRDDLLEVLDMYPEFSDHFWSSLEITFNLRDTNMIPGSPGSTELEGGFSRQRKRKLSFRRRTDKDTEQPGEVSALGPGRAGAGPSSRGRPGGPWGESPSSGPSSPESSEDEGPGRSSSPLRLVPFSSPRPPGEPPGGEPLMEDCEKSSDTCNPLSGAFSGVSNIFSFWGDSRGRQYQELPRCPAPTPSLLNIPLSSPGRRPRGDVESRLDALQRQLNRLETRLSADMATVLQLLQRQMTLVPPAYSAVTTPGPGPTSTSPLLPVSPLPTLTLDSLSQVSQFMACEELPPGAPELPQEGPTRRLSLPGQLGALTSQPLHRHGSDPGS

Broadly, the inhibition is the share of the control response that was lost under treatment. With `COc1cc(N)c(Cl)cc1C(=O)NC1CCN(CCCOc2ccc(F)cc2)CC1OC` (stereo not shown) [Cisapride], the inhibition at 2.5 min, 40 µM in series [1] came to 87.4%.

A word on the IC50: it is the concentration at which inhibition is half-maximal. For orientation: MRT means the average time that molecules of a dose stay in the body. Turning to `NC(=O)c1cccc2cn(-c3ccc([C@]4(F)CCCNC4)cc3)nc12` (single isomer, unassigned) [Example 24, (R or S)-2-(4-(3-fluoropiperidin-3-yl)phenyl)-2H-indazole-7-carboxamide], on PARP1, the IC50 was < 100 nM. In the series “in vivo” (setting [2]), the F was found to be 61.3%, the MRT worked out at 4.63 h and the T1/2 came to 2.64 h.

One may read the AUC as concentration integrated over time. As a reminder, the Cmax is the peak of the concentration-time curve. By half-life is commonly meant the time in which the quantity being followed falls by half. A lower half-life goes with rapid decline. For the molecule `[2H]C1(c2ccc(-n3cc4cccc(C(N)=O)c4n3)cc2)CCCNC1` (single isomer, unassigned) [Example 3, (R or S)-2-(4-(piperidin-3-D-3-yl)phenyl)-2H-indazole-7-carboxamide], in the series “in vivo” (SD rats, PO 10 mg/kg), the F stood at 62.3% and the “exposure amount (AUC) compared with Niraparib, in words” value is reported as “significantly higher”. In “in vivo” (setting [3]), this molecule showed a CL of 24.9 mL/min/kg and a Vdss of 6.04 L/kg. Further, the AUC in the series “in vivo” (male, Sprague-Dawley, rat, plasma, po, 10 mg/kg, AUC, SD rats, PO 10 mg/kg) worked out at 5160 ng·h/mL. Moreover, in “in vivo” (male, Sprague-Dawley, rat, plasma, po, 10 mg/kg, Cmax, SD rats, PO 10 mg/kg), the concentration peaked (Cmax) at 549 ng/mL. The MRT in the series “in vivo” (male, Sprague-Dawley, rat, plasma, po, 10 mg/kg, MRT, SD rats, PO 10 mg/kg) is 7.95 h. In the series “in vivo” (male, Sprague-Dawley, rat, plasma, po, 10 mg/kg, T1/2, SD rats, PO 10 mg/kg), this molecule gave a half-life of 3.18 h.
